ChEMBL document CHEMBL3112480, “γ-Alkylidene-γ-lactones and isobutylpyrrol-2(5H)-ones analogues to rubrolides as inhibitors of biofilm formation by gram-positive and gram-negative bacteria” (Bioorg Med Chem Lett, 2014)
In brackets after ≈: the same amount, converted by molar mass. Values belong to the compound of their own block, whether it stands above or below them.

What was measured:
Pseudomonas aeruginosa [1] = assay: Antibacterial activity against Pseudomonas aeruginosa ATCC 27853 assessed as inhibition of biofilm formation after 20 hrs by crystal-violet staining method; format: functional, organism-based; settings: for IC50: ATCC 27853, 20 h
Pseudomonas aeruginosa [2] = assay: Antibacterial activity against Pseudomonas aeruginosa ATCC 27853 assessed as effect on planktonic growth at 87.5 ug/ml after 20 hrs relative to control; format: functional
Streptococcus mutans [3] = assay: Antibacterial activity against Streptococcus mutans ATCC 25175 assessed as effect on planktonic growth at 5.5 ug/ml after 20 hrs relative to control; format: functional
Pseudomonas aeruginosa [4] = assay: Antibacterial activity against Pseudomonas aeruginosa ATCC 27853 assessed as effect on planktonic growth at 1.37 ug/ml after 20 hrs relative to control; format: functional
Staphylococcus aureus [5] = assay: Antibacterial activity against Staphylococcus aureus ATCC 25923 assessed as effect on planktonic growth at 0.17 ug/ml after 20 hrs relative to control; format: functional
Pseudomonas aeruginosa [6] = assay: Antibacterial activity against Pseudomonas aeruginosa ATCC 27853 assessed as effect on planktonic growth at 43.8 ug/ml after 20 hrs relative to control; format: functional
Staphylococcus aureus [7] = assay: Antibacterial activity against Staphylococcus aureus ATCC 25923 assessed as effect on planktonic growth at 0.34 ug/ml after 20 hrs relative to control; format: functional
[8] = test system: Staphylococcus epidermidis; assay: Antibacterial activity against Staphylococcus epidermidis ATCC 35547 assessed as effect on planktonic growth at 2.73 ug/ml after 20 hrs relative to control; format: functional
[9] = test system: Staphylococcus epidermidis; assay: Antibacterial activity against Staphylococcus epidermidis ATCC 35547 assessed as effect on planktonic growth at 43.8 ug/ml after 20 hrs relative to control; format: functional
Staphylococcus aureus [10] = assay: Antibacterial activity against Staphylococcus aureus ATCC 25923 assessed as effect on planktonic growth at 1.37 ug/ml after 20 hrs relative to control; format: functional
Staphylococcus aureus [11] = assay: Antibacterial activity against Staphylococcus aureus ATCC 25923 assessed as effect on planktonic growth at 2.73 ug/ml after 20 hrs relative to control; format: functional
Staphylococcus aureus [12] = assay: Antibacterial activity against Staphylococcus aureus ATCC 25923 assessed as effect on planktonic growth at 5.5 ug/ml after 20 hrs relative to control; format: functional
Pseudomonas aeruginosa [13] = assay: Antibacterial activity against Pseudomonas aeruginosa ATCC 27853 assessed as effect on planktonic growth at 0.17 ug/ml after 20 hrs relative to control; format: functional
[14] = test system: Staphylococcus epidermidis; assay: Antibacterial activity against Staphylococcus epidermidis ATCC 35547 assessed as effect on planktonic growth at 21.9 ug/ml after 20 hrs relative to control; format: functional
Staphylococcus aureus [15] = assay: Antibacterial activity against Staphylococcus aureus ATCC 25923 assessed as effect on planktonic growth at 0.68 ug/ml after 20 hrs relative to control; format: functional
[16] = test system: Staphylococcus epidermidis; assay: Antibacterial activity against Staphylococcus epidermidis ATCC 35547 assessed as effect on planktonic growth at 1.37 ug/ml after 20 hrs relative to control; format: functional
Streptococcus mutans [17] = assay: Antibacterial activity against Streptococcus mutans ATCC 25175 assessed as effect on planktonic growth at 2.73 ug/ml after 20 hrs relative to control; format: functional
Streptococcus mutans [18] = assay: Antibacterial activity against Streptococcus mutans ATCC 25175 assessed as effect on planktonic growth at 10.9 ug/ml after 20 hrs relative to control; format: functional
[19] = test system: Staphylococcus epidermidis; assay: Antibacterial activity against Staphylococcus epidermidis ATCC 35547 assessed as effect on planktonic growth at 5.5 ug/ml after 20 hrs relative to control; format: functional
Streptococcus mutans [20] = assay: Antibacterial activity against Streptococcus mutans ATCC 25175 assessed as effect on planktonic growth at 0.34 ug/ml after 20 hrs relative to control; format: functional
Staphylococcus aureus [21] = assay: Antibacterial activity against Staphylococcus aureus ATCC 25923 assessed as effect on planktonic growth at 43.8 ug/ml after 20 hrs relative to control; format: functional
Streptococcus mutans [22] = assay: Antibacterial activity against Streptococcus mutans ATCC 25175 assessed as effect on planktonic growth at 0.17 ug/ml after 20 hrs relative to control; format: functional
Pseudomonas aeruginosa [23] = assay: Antibacterial activity against Pseudomonas aeruginosa ATCC 27853 assessed as effect on planktonic growth at 2.73 ug/ml after 20 hrs relative to control; format: functional
[24] = test system: Staphylococcus epidermidis; assay: Antibacterial activity against Staphylococcus epidermidis ATCC 35547 assessed as effect on planktonic growth at 0.34 ug/ml after 20 hrs relative to control; format: functional
Streptococcus mutans [25] = assay: Antibacterial activity against Streptococcus mutans ATCC 25175 assessed as effect on planktonic growth at 87.5 ug/ml after 20 hrs relative to control; format: functional
[26] = test system: Staphylococcus epidermidis; assay: Antibacterial activity against Staphylococcus epidermidis ATCC 35547 assessed as inhibition of biofilm formation after 20 hrs by crystal-violet staining method; format: functional, organism-based; settings: for IC50: ATCC 35547, 20 h
Staphylococcus aureus [27] = assay: Antibacterial activity against Staphylococcus aureus ATCC 25923 assessed as effect on planktonic growth at 21.9 ug/ml after 20 hrs relative to control; format: functional
Streptococcus mutans [28] = assay: Antibacterial activity against Streptococcus mutans ATCC 25175 assessed as inhibition of biofilm formation at 44 ug/ml after 20 hrs by crystal-violet staining method relative to control; format: functional; settings: ATCC 25175, 20 h
Pseudomonas aeruginosa [29] = assay: Antibacterial activity against Pseudomonas aeruginosa ATCC 27853 assessed as effect on planktonic growth at 0.34 ug/ml after 20 hrs relative to control; format: functional
Pseudomonas aeruginosa [30] = assay: Antibacterial activity against Pseudomonas aeruginosa ATCC 27853 assessed as effect on planktonic growth at 0.68 ug/ml after 20 hrs relative to control; format: functional
Streptococcus mutans [31] = assay: Antibacterial activity against Streptococcus mutans ATCC 25175 assessed as effect on planktonic growth at 0.68 ug/ml after 20 hrs relative to control; format: functional
Pseudomonas aeruginosa [32] = assay: Antibacterial activity against Pseudomonas aeruginosa ATCC 27853 assessed as effect on planktonic growth at 5.5 ug/ml after 20 hrs relative to control; format: functional
Pseudomonas aeruginosa [33] = assay: Antibacterial activity against Pseudomonas aeruginosa ATCC 27853 assessed as effect on planktonic growth at 21.9 ug/ml after 20 hrs relative to control; format: functional
[34] = test system: Staphylococcus epidermidis; assay: Antibacterial activity against Staphylococcus epidermidis ATCC 35547 assessed as effect on planktonic growth at 87.5 ug/ml after 20 hrs relative to control; format: functional
[35] = test system: Staphylococcus epidermidis; assay: Antibacterial activity against Staphylococcus epidermidis ATCC 35547 assessed as effect on planktonic growth at 10.9 ug/ml after 20 hrs relative to control; format: functional
Streptococcus mutans [36] = assay: Antibacterial activity against Streptococcus mutans ATCC 25175 assessed as effect on planktonic growth at 43.8 ug/ml after 20 hrs relative to control; format: functional
Pseudomonas aeruginosa [37] = assay: Antibacterial activity against Pseudomonas aeruginosa ATCC 27853 assessed as effect on planktonic growth at 10.9 ug/ml after 20 hrs relative to control; format: functional
Staphylococcus aureus [38] = assay: Antibacterial activity against Staphylococcus aureus ATCC 25923 assessed as effect on planktonic growth at 10.9 ug/ml after 20 hrs relative to control; format: functional
[39] = test system: Staphylococcus epidermidis; assay: Antibacterial activity against Staphylococcus epidermidis ATCC 35547 assessed as effect on planktonic growth at 0.68 ug/ml after 20 hrs relative to control; format: functional
Streptococcus mutans [40] = assay: Antibacterial activity against Streptococcus mutans ATCC 25175 assessed as effect on planktonic growth at 1.37 ug/ml after 20 hrs relative to control; format: functional
Staphylococcus aureus [41] = assay: Antibacterial activity against Staphylococcus aureus ATCC 25923 assessed as effect on planktonic growth at 87.5 ug/ml after 20 hrs relative to control; format: functional
Streptococcus mutans [42] = assay: Antibacterial activity against Streptococcus mutans ATCC 25175 assessed as effect on planktonic growth at 21.9 ug/ml after 20 hrs relative to control; format: functional
[43] = test system: Staphylococcus epidermidis; assay: Antibacterial activity against Staphylococcus epidermidis ATCC 35547 assessed as effect on planktonic growth at 0.17 ug/ml after 20 hrs relative to control; format: functional

IC50 (Pseudomonas aeruginosa [1]): 0.6 µg/mL (≈ 1.3 µM)
IC50 [26]: 67.4 µg/mL (≈ 146 µM)
Compound: COc1ccc(C)cc1C1=C(Br)C(=O)N(CC(C)C)/C1=C\c1cccc(Cl)c1
inhibition (Pseudomonas aeruginosa [1]): Dose-dependent effect
Activity (Pseudomonas aeruginosa [2]): 35.3%
Activity (Streptococcus mutans [3]): -26.3%
Activity (Pseudomonas aeruginosa [4]): 0%
Activity (Staphylococcus aureus [5]): 10.8%
Activity (Pseudomonas aeruginosa [6]): 25.6%
Activity (Staphylococcus aureus [7]): 11.8%
Activity [8]: 11.4%
Activity [9]: -38.8%
Activity (Staphylococcus aureus [10]): 12%
Activity (Staphylococcus aureus [11]): 12.6%
Activity (Staphylococcus aureus [12]): 18.4%
Activity (Pseudomonas aeruginosa [13]): 0.9%
Activity [14]: -38.6%
Activity (Staphylococcus aureus [15]): 9.2%
Activity [16]: 6.4%
Activity (Streptococcus mutans [17]): -18.8%
Activity (Streptococcus mutans [18]): -32.3%
Activity [19]: 1.1%
Activity (Streptococcus mutans [20]): -4.1%
Activity (Staphylococcus aureus [21]): 6.6%
Activity (Streptococcus mutans [22]): -4.4%
Activity (Pseudomonas aeruginosa [23]): 3%
Activity [24]: 2.4%
Activity (Streptococcus mutans [25]): -46.7%
inhibition [26]: Dose-dependent effect
Activity (Staphylococcus aureus [27]): 4%
inhibition at 44 µg/mL (Streptococcus mutans [28]): 34%
Activity (Pseudomonas aeruginosa [29]): 0.8%
Activity (Pseudomonas aeruginosa [30]): 0.8%
Activity (Streptococcus mutans [31]): -6%
Activity (Pseudomonas aeruginosa [32]): 8.8%
Activity (Pseudomonas aeruginosa [33]): 21.3%
Activity [34]: -12.6%
Activity [35]: -19.8%
Activity (Streptococcus mutans [36]): -42.5%
Activity (Pseudomonas aeruginosa [37]): 13.5%
Activity (Staphylococcus aureus [38]): 13.2%
Activity [39]: -4.2%
Activity (Streptococcus mutans [40]): -14.9%
Activity (Staphylococcus aureus [41]): 4.8%
Activity (Streptococcus mutans [42]): -33.6%
Activity [43]: 5.6%

IC50 (Pseudomonas aeruginosa [1]): 2.4 µg/mL (≈ 5.21 µM)
IC50 [26]: 81.4 µg/mL (≈ 177 µM)
Compound: COc1ccc(C)cc1C1=C(Br)C(=O)N(CC(C)C)/C1=C/c1cccc(Cl)c1
inhibition (Pseudomonas aeruginosa [1]): Dose-dependent effect
Activity (Pseudomonas aeruginosa [2]): 29.8%
Activity (Streptococcus mutans [3]): -6.4%
Activity (Pseudomonas aeruginosa [4]): -0.9%
Activity (Staphylococcus aureus [5]): 4.1%
Activity (Pseudomonas aeruginosa [6]): 10.5%
Activity (Staphylococcus aureus [7]): 2.9%
Activity [8]: 18.1%
Activity [9]: 33.5%
Activity (Staphylococcus aureus [10]): 12.5%
Activity (Staphylococcus aureus [11]): 9.2%
Activity (Staphylococcus aureus [12]): 4.6%
Activity (Pseudomonas aeruginosa [13]): -2.3%
Activity [14]: 16.6%
Activity (Staphylococcus aureus [15]): 5.8%
Activity [16]: 4.2%
Activity (Streptococcus mutans [17]): -6.8%
Activity (Streptococcus mutans [18]): -12.4%
Activity [19]: 8.4%
Activity (Streptococcus mutans [20]): -2.3%
Activity (Staphylococcus aureus [21]): 1.8%
Activity (Streptococcus mutans [22]): -1.7%
Activity (Pseudomonas aeruginosa [23]): 0.3%
Activity [24]: 16.2%
Activity (Streptococcus mutans [25]): -32.5%
inhibition [26]: Dose-dependent effect
Activity (Staphylococcus aureus [27]): 0.6%
inhibition at 44 µg/mL (Streptococcus mutans [28]): 31.7%
Activity (Pseudomonas aeruginosa [29]): -2.2%
Activity (Pseudomonas aeruginosa [30]): -1.3%
Activity (Streptococcus mutans [31]): -2.3%
Activity (Pseudomonas aeruginosa [32]): 1.5%
Activity (Pseudomonas aeruginosa [33]): 7.8%
Activity [34]: 39.2%
Activity [35]: 14.3%
Activity (Streptococcus mutans [36]): -28.3%
Activity (Pseudomonas aeruginosa [37]): 1.8%
Activity (Staphylococcus aureus [38]): 0%
Activity [39]: 6.3%
Activity (Streptococcus mutans [40]): -4.9%
Activity (Staphylococcus aureus [41]): -3.2%
Activity (Streptococcus mutans [42]): -22.7%
Activity [43]: 13.9%
